Each compound was assayed against T1, Glucose-6-phosphate 1-dehydrogenase (Leuconostoc mesenteroides, UniProt P11411) (assay: Leuconostoc G6PDH inhibition potency, SAR follow-up, counter-screen for TbHK1 inhibitor project, biochemical, analogue series, IC50 (AID 2579)).
T1 sequence (P11411 whole entry): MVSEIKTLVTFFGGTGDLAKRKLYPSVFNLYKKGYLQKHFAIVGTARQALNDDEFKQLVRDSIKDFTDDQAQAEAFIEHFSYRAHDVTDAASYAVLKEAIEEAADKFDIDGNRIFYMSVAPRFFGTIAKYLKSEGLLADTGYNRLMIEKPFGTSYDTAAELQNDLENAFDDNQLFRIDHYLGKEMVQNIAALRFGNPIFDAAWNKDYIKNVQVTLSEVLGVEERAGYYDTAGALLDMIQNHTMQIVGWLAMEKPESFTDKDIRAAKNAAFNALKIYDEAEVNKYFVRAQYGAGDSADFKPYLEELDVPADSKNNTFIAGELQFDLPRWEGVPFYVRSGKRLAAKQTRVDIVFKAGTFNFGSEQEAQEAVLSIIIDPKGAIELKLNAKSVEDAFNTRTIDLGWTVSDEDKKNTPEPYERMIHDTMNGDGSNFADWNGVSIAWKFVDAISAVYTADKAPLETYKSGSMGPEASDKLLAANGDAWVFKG
In the case of `O=C(Cn1sc2ccccc2c1=O)N1CCOCC1` [KUC105406N], the IC50 is reported as > 25 µM. `Cc1ccccc1NC(=O)Cn1sc2ccccc2c1=O` was tested, and the IC50 was > 25 µM. With `O=C(Cn1sc2ccccc2c1=O)Nc1ccc(F)cc1` [N-(4-fluorophenyl)-2-(3-oxo-1,2-benzothiazol-2-yl)acetamide] the IC50 was > 25 µM. In the case of `O=C(Cn1sc2ccccc2c1=O)Nc1ccccc1I` [N-(2-iodanylphenyl)-2-(3-oxidanylidene-1,2-benzothiazol-2-yl)ethanamide], the IC50 is reported as > 25 µM. In the case of `COc1cccc(CC(=O)Nc2cc(Cl)ccc2C(=O)O)c1` [4-chloro-2-[[2-(3-methoxyphenyl)-1-oxoethyl]amino]benzoic acid], the IC50 is reported as > 25 µM. For `COc1ccc(C(=O)Nc2cc(Cl)ccc2S(N)(=O)=O)cc1`, the IC50 was > 25 µM. In the case of `O=C(Nc1cc(Cl)ccc1C(=O)O)c1cocn1` [KUC105934N], the IC50 is reported as > 25 µM. In the case of `CCCc1ccc(C(=O)Nc2cc(Cl)ccc2C(=O)O)cc1`, the IC50 is reported as > 25 µM. With `O=c1c2cc(F)c(F)cc2sn1-c1ccccc1` [KUC104549N] the IC50 was > 25 µM. For `O=c1c2ccc(Br)cc2sn1-c1ccccc1`, the IC50 was > 25 µM. With `N#Cc1ccc(Oc2ccc3c(c2)B(O)OC3)cc1` [KSC-6-289] the IC50 was > 25 µM. In the case of `O=c1c2cccnc2sn1-c1ccccc1` [2-(Phenyl)-isothiazolo[5,4-b]pyridin-3(2H)-one], the IC50 is reported as > 25 µM. `O=C(Cn1sc2ccccc2c1=O)Nc1cccc(I)c1` [KUC104222N] was tested, and the IC50 was > 25 µM. For `COc1ccc(C(=O)NC(CC(=O)O)c2cccc(Cl)c2)cc1` (stereo not drawn) [3-(3-chlorophenyl)-3-[(4-methoxybenzoyl)amino]propanoic acid], the IC50 was > 25 µM. In the case of `CN(C)c1ccc(NC(=O)Cn2sc3ccccc3c2=O)cc1` [KSC-09-127C], the IC50 is reported as > 25 µM. For `COC(=O)c1cc(Cl)ccc1NC(=O)c1ccc(OC)cc1` [methyl 5-chloranyl-2-[(4-methoxyphenyl)carbonylamino]benzoate], the IC50 was > 25 µM. For `COc1ccc(C(=O)NC(C(=O)O)c2ccccc2)cc1` (stereo not drawn) [2-[(4-methoxyphenyl)carbonylamino]-2-phenyl-ethanoic acid], the IC50 was > 25 µM. `O=c1c2ccccc2sn1-c1ccc(Cl)cc1` [2-(4-chlorophenyl)-1,2-benzothiazol-3-one] was tested, and the IC50 was > 25 µM. For `O=C(Cn1sc2ccccc2c1=O)Nc1ccc(Br)cc1` [N-(4-bromophenyl)-2-(3-oxo-1,2-benzothiazol-2-yl)acetamide], the IC50 was > 25 µM. In the case of `CN(C)c1cccc(NC(=O)Cn2sc3ccccc3c2=O)c1` [KSC-09-148-9], the IC50 is reported as > 25 µM. `CC(C)c1ccc(C(=O)Nc2cc(Cl)ccc2C(=O)O)cc1` [4-chloro-2-[[oxo-(4-propan-2-ylphenyl)methyl]amino]benzoic acid] was tested, and the IC50 was > 25 µM. In the case of `COc1ccc(-n2sc3ccccc3c2=O)cc1` [KSC-6-098], the IC50 is reported as > 25 µM. In the case of `CCCCCC(=O)Nc1cc(Cl)ccc1C(=O)O` [4-chloro-2-(1-oxohexylamino)benzoic acid], the IC50 is reported as > 25 µM. For `COc1ccc(S(=O)(=O)Nc2cc(Cl)ccc2C(=O)O)cc1`, the IC50 was > 25 µM. In the case of `O=c1c2cc(C(F)(F)F)ccc2sn1-c1ccccc1` [KSC-09-037], the IC50 is reported as > 25 µM. `COc1ccc(C(=O)Nc2cc(I)ccc2C(=O)O)cc1` [4-iodanyl-2-[(4-methoxyphenyl)carbonylamino]benzoic acid] was tested, and the IC50 was > 25 µM. In the case of `O=C(Nc1cc(Cl)ccc1C(=O)O)c1ccc2ccccc2c1` [4-chloro-2-[[2-naphthalenyl(oxo)methyl]amino]benzoic acid], the IC50 is reported as > 25 µM. In the case of `N#Cc1ccc(NC(=O)Cn2sc3ccccc3c2=O)cc1` [KUC104552N], the IC50 is reported as > 25 µM. With `CC(=O)Nc1ccc2sn(-c3ccccc3)c(=O)c2c1` [KSC-6-110] the IC50 was > 25 µM. In the case of `COc1ccc(NC(=O)c2ccccc2C(=O)O)cc1` [KSC-6-244], the IC50 is reported as > 25 µM. In the case of `O=C(Cn1sc2ccccc2c1=O)Nc1ccccc1C(F)(F)F` [KUC105610N], the IC50 is reported as > 25 µM. For `O=C(O)c1ccc(Cl)cc1NC(=O)c1coc2ccccc12` [2-[[3-benzofuranyl(oxo)methyl]amino]-4-chlorobenzoic acid], the IC50 was > 25 µM. `Cc1ccc(C(=O)Nc2cc(Cl)ccc2C(=O)O)cc1C` [KUC106495N] was tested, and the IC50 was > 25 µM.
